Measurements from the NIST ThermoML archive (doi:10.1016/j.fluid.2010.05.017).
Numbers after ± are expanded uncertainties. Each block holds one compound with its values, some of them ahead of it.

Assays:
[1] = xn = mol fraction of the nth substance listed; conditions: 298.15 K, 101 kPa, Liquid, Vibrating tube method
[2] = 298.15 K; 101.33 kPa; Liquid; Vibrating tube method
[3] = refractive index (Na D-line) (dimensionless); conditions: 298.15 K; 101.33 kPa; Liquid; Standard Abbe refractometry

Compound: Cc1ccccc1C [1,2-dimethylbenzene] + CCCCCC
mass density ([1]; x2 = 0): 875.37 ± 0.24 kg/m3 | mass density ([1]; x2 = 0.045): 865.52 ± 2.7 kg/m3 | mass density ([1]; x2 = 0.097): 853.5 ± 2.7 kg/m3 | mass density ([1]; x2 = 0.189): 832.71 ± 2.7 kg/m3 | mass density ([1]; x2 = 0.295): 809.05 ± 2.7 kg/m3 | mass density ([1]; x2 = 0.397): 786.32 ± 2.7 kg/m3 | mass density ([1]; x2 = 0.495): 764.54 ± 2.7 kg/m3 | mass density ([1]; x2 = 0.597): 742.07 ± 2.6 kg/m3 | mass density ([1]; x2 = 0.697): 720.32 ± 2.6 kg/m3 | mass density ([1]; x2 = 0.797): 698.71 ± 2.6 kg/m3 | mass density ([1]; x2 = 0.901): 676.45 ± 2.6 kg/m3 | mass density ([1]; x2 = 0.95): 665.83 ± 2.6 kg/m3

Compound: Cc1cccc(C)c1 [1,3-dimethylbenzene] + CCCCCC
mass density ([1]; x2 = 0): 859.79 ± 0.24 kg/m3 | mass density ([1]; x2 = 0.05): 849.62 ± 2.5 kg/m3 | mass density ([1]; x2 = 0.098): 839.51 ± 2.5 kg/m3 | mass density ([1]; x2 = 0.194): 819.34 ± 2.5 kg/m3 | mass density ([1]; x2 = 0.297): 797.9 ± 2.5 kg/m3 | mass density ([1]; x2 = 0.398): 777.18 ± 2.5 kg/m3 | mass density ([1]; x2 = 0.498): 756.55 ± 2.5 kg/m3 | mass density ([1]; x2 = 0.6): 735.62 ± 2.5 kg/m3 | mass density ([1]; x2 = 0.699): 715.46 ± 2.5 kg/m3 | mass density ([1]; x2 = 0.793): 696.42 ± 2.4 kg/m3 | mass density ([1]; x2 = 0.896): 676.03 ± 2.4 kg/m3 | mass density ([1]; x2 = 0.948): 665.51 ± 2.4 kg/m3

Compound: Cc1ccc(C)cc1 [1,4-dimethylbenzene] + CCCCCC
mass density ([1]; x2 = 0): 856.59 ± 0.24 kg/m3 | mass density ([1]; x2 = 0.048): 847.14 ± 2.4 kg/m3 | mass density ([1]; x2 = 0.098): 836.82 ± 2.5 kg/m3 | mass density ([1]; x2 = 0.196): 816.92 ± 2.5 kg/m3 | mass density ([1]; x2 = 0.292): 797.23 ± 2.5 kg/m3 | mass density ([1]; x2 = 0.394): 776.41 ± 2.5 kg/m3 | mass density ([1]; x2 = 0.492): 756.57 ± 2.4 kg/m3 | mass density ([1]; x2 = 0.591): 736.73 ± 2.4 kg/m3 | mass density ([1]; x2 = 0.692): 716.48 ± 2.4 kg/m3 | mass density ([1]; x2 = 0.792): 696.69 ± 2.4 kg/m3 | mass density ([1]; x2 = 0.892): 676.71 ± 2.4 kg/m3 | mass density ([1]; x2 = 0.948): 665.7 ± 2.4 kg/m3

mass density [2]: 1219.61 ± 0.42 kg/m3 | refractive index [3]: 1.50591 ± 0.00071
Compound: CCOS(=O)(=O)[O-].CC[n+]1cccc(C)c1 [1-ethyl-3-methylpyridinium ethylsulfate]

Compound: CCCCCC [hexane] + Cc1ccc(C)cc1
mass density ([1]; x1 = 1): 655.19 ± 0.25 kg/m3

Compound: CCCCCC [hexane] + Cc1cccc(C)c1
mass density ([1]; x1 = 1): 655.19 ± 0.25 kg/m3

Compound: CCCCCC [hexane] + Cc1ccccc1C
mass density ([1]; x1 = 1): 655.19 ± 0.25 kg/m3
